Measurements from patent US7897846B2, “Maize event DP-098140-6 and compositions and methods for the identification and/or detection thereof” (Pioneer Hi-Bred Int'l, Inc., priority 2006, dated 2011).
Like-named read-outs stand apart in the source and are kept apart here.

B1: GLYAT4621: glyphosate acetyltransferase protein encoded by the glyat4621 gene, expressed in DP-098140-6 maize (protein)
chain: MAIEVKPINAEDTYDLRHRVLRPNQPIEACMFESDLTRSAFHLGGFYGGKLISVASFHQAEHSELQGKKQYQLRGVATLEGYREQKAGSSLVKHAEEILRKRGADMIWCNARTSASGYYRKLGFSEQGEVFDTPPVGPHILMYKR
modifications: GAT4621 probe
notes: glyphosate acetyltransferase protein encoded by the glyat4621 gene, expressed in DP-098140-6 maize

Experiments:
[1] = test system: DP-098140-6 maize; assay: Greenhouse herbicide tolerance, visual herbicide injury rating, two generations; format: in vivo, Zea mays; conditions: applied at V4
Method: (§1) The objective of this study was to evaluate the herbicide tolerance and protein expression in maize containing the event DP-098140-6.
(§2) Plants were grown in a greenhouse using a randomized complete block design containing four blocks. Each block consisted of twenty-four flats. Flats representing entries 1-12 (segregating 1:1) contained approximately fifteen plants per entry, while flats representing entries 13-24 (non-segregating) contained approximately ten plants per entry. Trait confirmation for GLYAT4621 was conducted for test and control entries at the V2 growth stage using lateral flow strip tests specific for the GLYAT protein. Plants with positive trait confirmation results (expressing GLYAT4621) were used for test entries and plants with negative trait confirmation results (not expressing GLYAT4621) were used as the control entries. Any remaining negative segregants not used for controls were then removed and remaining positive plants were thinned to 5 plants per entry within each block (treatment). At the V4 growth stage, a herbicide treatment containing glyphosate (1.46 L/ha or 20 oz/acre)+nonionic surfactant (0.25% vol./vol.)+ammonium sulfate (3.4 kg/ha) was applied to entries 1, 9, 13, and 21; herbicides containing thifensulfuron (3.5 g/ha or 0.5 oz/acre) and tribenuron (3.5 g/ha or 0.5 oz/acre) each containing nonionic surfactant (0.25% vol./vol.)+ammonium sulfate (3.4 kg/ha) were applied to entries 2, 10, 14 and 22; and a tank mixture of herbicides containing glyphosate, thifensulfuron and tribenuron was applied to entries 3, 11, 15, and 23 (Table 15).
(§3) Herbicide injury was evaluated visually at 14 and 21 days after herbicide application by estimating herbicide injury percentage, where “0” represented no visible injury and “100” represented complete plant death. The injury rating took into account all symptoms of herbicide injury when compared to the untreated entry for the same maize line. Injury symptoms included discoloration, leaf speckling, and wilting. The untreated entries for each maize line were rated as 0% injury and the herbicide treated entries of the same maize line were rated by comparing them to this untreated entry. Photographs were taken at 21 days following herbicide application to record herbicide injury. In order to further characterize tolerance to ALS-inhibiting herbicides, a characteristic of the zm-hra gene in DP-098140-6 maize, plant heights were measured for all entries at 14 and 21 days post herbicide treatment. Plant height was measured in cm from the soil surface to the tip of the highest leaf when extended by hand.
(§4) Means, standard error and P-values were calculated for plant height data. Means were calculated for herbicide injury scores. Means, ranges and standard deviations of protein expression data were calculated for each protein expressed in leaf and seed tissues.

[2] = test system: near isoline control maize; assay: as above; format: in vivo, Zea mays; conditions: for Average Herbicide Injury Rating: Control maize, 0-100 scale, applied at V4
Method: as §1, §2, §3, §4

[3] = test system: DP-098140-6 maize; format: in vivo, Zea mays; conditions: 98140 maize
Method: as §2, §3, §4

[4] = test system: near isoline control maize; format: in vivo, Zea mays
Method: as §2, §3, §4

[5] = GLYAT4621 sandwich ELISA, leaf tissue at V5 stage (pg/μg total extractable protein); parameters: species or system Zea mays; conditions: DP-098140-6 maize leaf tissue, V5 growth stage, greenhouse; 20 plants
Method: Expression of the GLYAT4621 and Zm-HRA proteins has been evaluated on the leaf tissue collected at the V5 stage of growth from plants cultivated in greenhouses. For each sample, four fresh leaf punches were collected and ground in sample extraction buffer using a GenoGrinder (Spex Certiprep). Total Extractable Protein (TEP) was determined using the Bio-Rad Protein assay, which is based on the Bradford dye-binding procedure. Sample extracts were diluted in sample extraction buffer for ELISA analysis.
The GLYAT4621 and ZM-HRA ELISA's utilize a “sandwich” format for the quantification of the specific target protein in plant tissue extracts. […] The reaction is stopped with Sulfuric acid and the optical density of each well is determined using a Molecular Devices plate reader with a wavelength setting of 450 nm-650 nm. […] The mean concentration from the duplicate wells is expressed as pg target protein/μg of total extractable protein (TEP). The sample lower limit of quantification (LLOQ) was 10 pg GLYAT4621 protein/μg TEP and the upper detection limit was 2000 pg GLYAT4621 protein/μg TEP. The sample lower limit of quantification was 20 pg ZM-HRA protein/μg TEP and the upper detection limit was 5000 pg ZM-HRA protein/μg TEP.

Row | Molecule | Average Herbicide Injury Rating ([1]; Generation 1, 14 days post-treatment, 0 = no visible injury, 100 = complete plant death) | Average Herbicide Injury Rating ([1]; Generation 1, 21 days post-treatment, 0-100 scale) | Average Herbicide Injury Rating ([1]; Generation 2, 14 days post-treatment, 0-100 scale) | Average Herbicide Injury Rating ([1]; Generation 2, 21 days post-treatment, 0-100 scale) | Average Herbicide Injury Rating ([2]; Generation 1, 14 days post-treatment) | Average Herbicide Injury Rating ([2]; Generation 1, 21 days post-treatment) | Average Herbicide Injury Rating ([2]; Generation 2, 14 days post-treatment) | Average Herbicide Injury Rating ([2]; Generation 2, 21 days post-treatment) | injury ([2]; sprayed control maize, both generations) | Plant height, Least Square Means ([3]; Generation 1, 14 days following treatment) | Plant height, Least Square Means ([3]; Generation 1, 21 days following treatment) | Plant height, Least Square Means ([3]; Generation 2, 14 days following treatment) | Plant height, Least Square Means ([3]; Generation 2, 21 days following treatment) | Plant height, Least Square Means ([4]; Generation 1, 14 days following treatment, 0 cm = visible plant that has died due to herbicide treatment) | Plant height, Least Square Means ([4]; Generation 1, 21 days following treatment, 0 cm = visible plant that has died due to herbicide treatment) | Plant height, Least Square Means ([4]; Generation 2, 14 days following treatment, 0 cm = plant died due to herbicide) | Plant height, Least Square Means ([4]; Generation 2, 21 days following treatment, 0 cm = plant died due to herbicide) | Expression level of GLYAT4621 protein, Mean [5]
1 | O=C(O)CNCP(=O)(O)O [Glyphosate, glyphosate] | 0 | 0 | 0 | 0 | 100 | 100 | 100 | 100 | 100% | 103 cm | 120 cm | 101 cm | 115 cm | 0.00 cm | 0.00 cm | 0.00 cm | 0.00 cm | –
2 | B1 | – | – | – | – | – | – | – | – | – | – | – | – | – | – | – | – | – | 571.7 pg/μg TEP
